Values of other authors in patent publication US20240192198A1, “BIOMIMETIC LIPOSOMES AND METHODS OF MAKING AND USING THE SAME” (Worcester Polytechnic Institute, priority 2022, published 2024).

Conditions: hydrophobicity; obtained from the National Library of Medicine, PubChem Database

logP: −2.5
SMILES: Nc1nc2ncc(CNc3ccc(C(=O)N[C@@H](CCC(=O)O)C(=O)O)cc3)nc2c(=O)[nH]1 [Folic acid]
